Test: xn = mol fraction of the nth substance listed
Conditions: Liquid; for viscosity: Concentric cylinders viscometry

CCCC[n+]1ccn(C)c1.O=S(=O)([N-]S(=O)(=O)C(F)(F)F)C(F)(F)F + CCCCn1cc[n+](C)c1.[Cl-]
viscosity [mPa·s], 100 kPa
Conditions | 293.15 K | 303.15 K | 313.15 K | 323.15 K | 333.15 K | 343.15 K | 353.15 K | 363.15 K | 373.15 K
x2 = 0 | 63.41 | 41.26 | 28.46 | 20.58 | 15.47 | 12 | 9.562 | 7.788 | 6.469
x2 = 0.25 | 150.8 | 89.81 | 57.25 | 38.43 | 27.37 | 20.16 | 15.34 | 12.03 | 9.638
x2 = 0.5 | 489.6 | 255.5 | 144.8 | 87.69 | 57.22 | 39.08 | 27.82 | 20.61 | 15.7
x2 = 0.75 | – | 1095 | 513 | 265.5 | 150.4 | 91.4 | 58.87 | 40.11 | 28.43

mass density [kg/m3]
Conditions | x2 = 0 | x2 = 0.25 | x2 = 0.5 | x2 = 0.75
293.15 K, 100 kPa, Vibrating tube method | 1440.9 | 1383.3 | 1310.1 | –
303.15 K, 100 kPa, Vibrating tube method | 1431.6 | 1374.4 | 1301.8 | 1207.9
312.3 K, 10000 kPa, Bellows volumetry | – | 1373.1 | 1300.2 | 1205.8
312.3 K, 20000 kPa, Bellows volumetry | – | 1379.8 | 1306.1 | 1210.5
312.3 K, 30000 kPa, Bellows volumetry | – | 1386 | 1311.7 | 1215
312.3 K, 40000 kPa, Bellows volumetry | – | 1392 | 1317 | 1219.3
312.3 K, 50000 kPa, Bellows volumetry | – | 1397.7 | 1322.1 | 1223.6
312.3 K, 60000 kPa, Bellows volumetry | – | 1403.3 | 1326.9 | 1227.7
312.3 K, 70000 kPa, Bellows volumetry | – | 1408.6 | 1331.6 | 1231.6
312.3 K, 80000 kPa, Bellows volumetry | – | 1413.7 | 1336.2 | 1235.5
312.3 K, 90000 kPa, Bellows volumetry | – | 1418.5 | 1340.5 | 1239.2
312.3 K, 100000 kPa, Bellows volumetry | – | 1423.4 | 1344.8 | 1242.8
312.3 K, 110000 kPa, Bellows volumetry | – | 1428.1 | 1349.1 | 1246.4
312.3 K, 120000 kPa, Bellows volumetry | – | 1432.6 | 1353.1 | 1249.9
312.3 K, 130000 kPa, Bellows volumetry | – | 1437.1 | 1357.1 | 1253.3
312.3 K, 140000 kPa, Bellows volumetry | – | 1441.3 | 1360.9 | 1256.6
312.3 K, 150000 kPa, Bellows volumetry | – | 1445.6 | 1364.7 | 1260
312.3 K, 160000 kPa, Bellows volumetry | – | 1449.7 | 1368.4 | 1263.1
312.3 K, 170000 kPa, Bellows volumetry | – | 1453.8 | 1372.2 | 1266.3
312.3 K, 180000 kPa, Bellows volumetry | – | 1457.7 | 1375.8 | 1269.4
312.3 K, 190000 kPa, Bellows volumetry | – | 1461.7 | 1379.3 | 1272.4
312.3 K, 200000 kPa, Bellows volumetry | – | 1465.4 | 1382.7 | 1275.5
313.15 K, 100 kPa, Vibrating tube method | 1422.1 | 1365.6 | 1293.9 | 1200.6
323.15 K, 100 kPa, Vibrating tube method | 1412.6 | 1356.8 | 1286 | 1193.6
331.8 K, 10000 kPa, Bellows volumetry | – | 1356.2 | 1285.2 | 1192.4
331.8 K, 20000 kPa, Bellows volumetry | – | 1363.2 | 1291.3 | 1197.3
331.8 K, 30000 kPa, Bellows volumetry | – | 1369.9 | 1297.1 | 1202.1
331.8 K, 40000 kPa, Bellows volumetry | – | 1376.2 | 1302.7 | 1206.7
331.8 K, 50000 kPa, Bellows volumetry | – | 1382.2 | 1307.9 | 1211.1
331.8 K, 60000 kPa, Bellows volumetry | – | 1388 | 1313 | 1215.5
331.8 K, 70000 kPa, Bellows volumetry | – | 1393.5 | 1318 | 1219.5
331.8 K, 80000 kPa, Bellows volumetry | – | 1398.9 | 1322.8 | 1223.6
331.8 K, 90000 kPa, Bellows volumetry | – | 1404 | 1327.2 | 1227.4
331.8 K, 100000 kPa, Bellows volumetry | – | 1408.9 | 1331.6 | 1231.2
331.8 K, 110000 kPa, Bellows volumetry | – | 1413.9 | 1336.1 | 1235
331.8 K, 120000 kPa, Bellows volumetry | – | 1418.5 | 1340.4 | 1238.5
331.8 K, 130000 kPa, Bellows volumetry | – | 1423.2 | 1344.4 | 1242
331.8 K, 140000 kPa, Bellows volumetry | – | 1427.6 | 1348.5 | 1245.4
331.8 K, 150000 kPa, Bellows volumetry | – | 1432 | 1352.3 | 1248.7
331.8 K, 160000 kPa, Bellows volumetry | – | 1436.3 | 1356.2 | 1252.1
331.8 K, 170000 kPa, Bellows volumetry | – | 1440.5 | 1359.9 | 1255.3
331.8 K, 180000 kPa, Bellows volumetry | – | 1444.5 | 1363.8 | 1258.5
331.8 K, 190000 kPa, Bellows volumetry | – | 1448.5 | 1367.3 | 1261.6
331.8 K, 200000 kPa, Bellows volumetry | – | 1452.6 | 1371 | 1264.7
333.15 K, 100 kPa, Vibrating tube method | 1403.4 | 1348.2 | 1278.3 | 1186.8
343.15 K, 100 kPa, Vibrating tube method | 1394 | 1339.6 | 1270.6 | 1180.2
351.9 K, 10000 kPa, Bellows volumetry | – | 1339.5 | 1270.2 | 1179
351.9 K, 20000 kPa, Bellows volumetry | – | 1346.9 | 1276.5 | 1184.3
351.9 K, 30000 kPa, Bellows volumetry | – | 1354 | 1282.7 | 1189.3
351.9 K, 40000 kPa, Bellows volumetry | – | 1360.6 | 1288.5 | 1194.1
351.9 K, 50000 kPa, Bellows volumetry | – | 1366.9 | 1294.1 | 1198.8
351.9 K, 60000 kPa, Bellows volumetry | – | 1373 | 1299.5 | 1203.2
351.9 K, 70000 kPa, Bellows volumetry | – | 1378.9 | 1304.5 | 1207.5
351.9 K, 80000 kPa, Bellows volumetry | – | 1384.5 | 1309.5 | 1211.8
351.9 K, 90000 kPa, Bellows volumetry | – | 1389.8 | 1314.2 | 1215.7
351.9 K, 100000 kPa, Bellows volumetry | – | 1394.9 | 1318.9 | 1219.6
351.9 K, 110000 kPa, Bellows volumetry | – | 1400 | 1323.3 | 1223.4
351.9 K, 120000 kPa, Bellows volumetry | – | 1404.9 | 1327.8 | 1227.2
351.9 K, 130000 kPa, Bellows volumetry | – | 1409.6 | 1332 | 1230.8
351.9 K, 140000 kPa, Bellows volumetry | – | 1414.2 | 1336.1 | 1234.5
351.9 K, 150000 kPa, Bellows volumetry | – | 1418.7 | 1340.3 | 1237.9
351.9 K, 160000 kPa, Bellows volumetry | – | 1423.2 | 1344.2 | 1241.4
351.9 K, 170000 kPa, Bellows volumetry | – | 1427.5 | 1348 | 1244.7
351.9 K, 180000 kPa, Bellows volumetry | – | 1431.7 | 1351.8 | 1247.9
351.9 K, 190000 kPa, Bellows volumetry | – | 1435.8 | 1355.6 | 1251.2
351.9 K, 200000 kPa, Bellows volumetry | – | 1439.9 | 1359.2 | 1254.3
353.15 K, 100 kPa, Vibrating tube method | 1384.8 | 1331.1 | 1263 | 1173.6
363.15 K, 100 kPa, Vibrating tube method | 1375.6 | 1322.6 | 1255.4 | 1167.1
372.1 K, 10000 kPa, Bellows volumetry | – | 1322.9 | 1255 | 1165.9
372.1 K, 20000 kPa, Bellows volumetry | – | 1330.9 | 1261.8 | 1171.6
372.1 K, 30000 kPa, Bellows volumetry | – | 1338.3 | 1268.4 | 1176.9
372.1 K, 40000 kPa, Bellows volumetry | – | 1345.3 | 1274.6 | 1181.9
372.1 K, 50000 kPa, Bellows volumetry | – | 1352 | 1280.4 | 1186.7
372.1 K, 60000 kPa, Bellows volumetry | – | 1358.3 | 1286 | 1191.4
372.1 K, 70000 kPa, Bellows volumetry | – | 1364.4 | 1291.3 | 1195.9
372.1 K, 80000 kPa, Bellows volumetry | – | 1370.4 | 1296.5 | 1200.3
372.1 K, 90000 kPa, Bellows volumetry | – | 1375.8 | 1301.4 | 1204.4
372.1 K, 100000 kPa, Bellows volumetry | – | 1381.2 | 1306.1 | 1208.5
372.1 K, 110000 kPa, Bellows volumetry | – | 1386.4 | 1310.9 | 1212.5
372.1 K, 120000 kPa, Bellows volumetry | – | 1391.5 | 1315.4 | 1216.3
372.1 K, 130000 kPa, Bellows volumetry | – | 1396.2 | 1319.8 | 1220
372.1 K, 140000 kPa, Bellows volumetry | – | 1401.1 | 1324.2 | 1223.7
372.1 K, 150000 kPa, Bellows volumetry | – | 1405.7 | 1328.4 | 1227.3
372.1 K, 160000 kPa, Bellows volumetry | – | 1410.3 | 1332.5 | 1230.8
372.1 K, 170000 kPa, Bellows volumetry | – | 1414.7 | 1336.4 | 1234.1
372.1 K, 180000 kPa, Bellows volumetry | – | 1419 | 1340.3 | 1237.6
372.1 K, 190000 kPa, Bellows volumetry | – | 1423.3 | 1344.1 | 1240.8
372.1 K, 200000 kPa, Bellows volumetry | – | 1427.6 | 1347.9 | 1244.1
373.15 K, 100 kPa, Vibrating tube method | 1366.7 | 1314 | 1247.5 | 1160.2
392.3 K, 10000 kPa, Bellows volumetry | – | 1306.7 | 1240.1 | 1152.9
392.3 K, 20000 kPa, Bellows volumetry | – | 1315.1 | 1247.4 | 1158.8
392.3 K, 30000 kPa, Bellows volumetry | – | 1323.1 | 1254.3 | 1164.4
392.3 K, 40000 kPa, Bellows volumetry | – | 1330.5 | 1260.9 | 1169.7
392.3 K, 50000 kPa, Bellows volumetry | – | 1337.5 | 1266.9 | 1174.8
392.3 K, 60000 kPa, Bellows volumetry | – | 1344.2 | 1272.8 | 1179.6
392.3 K, 70000 kPa, Bellows volumetry | – | 1350.5 | 1278.4 | 1184.3
392.3 K, 80000 kPa, Bellows volumetry | – | 1356.6 | 1283.8 | 1188.8
392.3 K, 90000 kPa, Bellows volumetry | – | 1362.4 | 1288.8 | 1193.1
392.3 K, 100000 kPa, Bellows volumetry | – | 1368 | 1293.8 | 1197.3
392.3 K, 110000 kPa, Bellows volumetry | – | 1373.3 | 1298.7 | 1201.5
392.3 K, 120000 kPa, Bellows volumetry | – | 1378.6 | 1303.4 | 1205.5
392.3 K, 130000 kPa, Bellows volumetry | – | 1383.7 | 1308 | 1209.3
392.3 K, 140000 kPa, Bellows volumetry | – | 1388.7 | 1312.4 | 1213.1
392.3 K, 150000 kPa, Bellows volumetry | – | 1393.5 | 1316.8 | 1216.8
392.3 K, 160000 kPa, Bellows volumetry | – | 1398.2 | 1320.9 | 1220.4
392.3 K, 170000 kPa, Bellows volumetry | – | 1402.8 | 1325.1 | 1224
392.3 K, 180000 kPa, Bellows volumetry | – | 1407.1 | 1329.2 | 1227.4
392.3 K, 190000 kPa, Bellows volumetry | – | 1411.5 | 1333 | 1230.8
392.3 K, 200000 kPa, Bellows volumetry | – | 1415.9 | 1336.9 | 1234.2

— the NIST ThermoML archive (doi:10.1016/j.jct.2016.12.037)
